# Test results as given in patent US20030215817A1, “Modulation of gene expression in formation of fatty atherosclerotic lesions” (priority 2003, published 2003).
# Counter-ions that a name gives are not always drawn.
# How the values were obtained:
# Assay type in all cases: in vivo, rabbit
# [1] = test system: REC1_2 (MspI AATC 108) mRNA; experiment: TOGA analysis, REC1_2
# Protocol: (§1) To perform the studies, New Zealand male rabbits weighing 2.0-2.5 kg (Charles River, Calco, Italy) were used. The rabbits were divided into three groups and maintained in identical experimental conditions: (1) control group (n=15); rabbits fed a cholesterol-rich diet; (2) lercanidipine-treated group (n=15); rabbits fed a cholesterol-rich diet and also treated with lercanidipine (3 mg/kg/week); and (3) (R)-lercanidipine-treated group (n=5); rabbits fed a cholesterol-rich diet and also treated with the (R)-enantiomer of lercanidipine (3 mg/kg/week). After a 2 week period of subcutaneous, once a week, pretreatment with 3 mg/kg/week of lercanidipine or (R)-lercanidipine, the rabbits received a daily cholesterol supplement for up to 8 weeks or 2 weeks, respectively. In the following examples, use of the term “lercanidipine” refers to the racemic mixture of lercanidipine hydrochloride, whereas “(R)-lercanidipine” refers to the (R)-enantiomer of lercanidipine hydrochloride.
# (§2) The mRNA from the above-described groups was isolated from aorta at different time points, resulting in the following mRNA samples: (1) Day 0 Control=no administered cholesterol, no lercanidipine; (2) Day 0+lercanidipine=no administered cholesterol, treatment with lercanipidine (2 weeks; 3 mg/kg/week); (3) Day 14 Control=cholesterol diet for two weeks, no lercanidipine; (4) Day 14+lercanidipine=cholesterol diet for two weeks, treatment with lercanidipine (four weeks; 3 mg/kg/week); (5) Week 8 Control=cholesterol diet for 8 weeks, no lercanidipine; and (6) Week 8+lercanidipine=cholesterol diet for 8 weeks, treatment with lercanidipine (10 weeks; 3 mg/kg/week). In addition, Day 14+(R)-lercanidipine mRNA samples were prepared from rabbits given a cholesterol diet for two weeks and treated with 3 mg/kg/week (R)-lercanidipine for four weeks.
# (§3) Aorta mRNAs were prepared in the following manner. First, the aortas from each experimental group were retrieved and shredded using a polytron homogenizer. The samples were further homogenized using a teflon pestle, after which the cellular debris, nuclei, and blood cells were pelleted by centrifugation. The supernatants were extracted twice with phenol-chloroform-isoamyl alcohol and once with chloroform-isoamyl alcohol. RNA was then precipitated from the aqueous phase with ethanol. The poly A+ mRNA was prepared using standard methods of polyA selection known in the art (Schriber et al., J. Mol. Biol., 142:93-116 (1980)).
# (§4) The isolated mRNA was analyzed using a method of simultaneous sequence-specific identification of mRNAs known as TOGA, described in U.S. Pat. No. 5,459,037 and U.S. Pat. No. 5,807,680, hereby incorporated herein by reference. In a preferred embodiment, the TOGA method further comprised an additional PCR step performed using a mixture of four 5′ PCR primers and cDNA templates prepared from a population of antisense cRNAs. A final PCR step that used a mixture of 256 5′ PCR primers produced PCR products that were cDNA fragments that corresponded to the 3′-region of the starting mRNA population. The produced PCR products were then identified by: (a) the initial 5′ sequence comprising the sequence remainder of the recognition site of the restriction endonuclease used to cut and isolate the 3′ region plus the sequence of the preferably four parsing bases immediately 3′ to the remainder of the recognition site, preferably the sequence of the entire fragment; and (b) the length of the fragment. […]
# [2] = test system: REC1_6 (MspI ATCC 176) mRNA, ferritin light chain subunit; experiment: TOGA analysis, REC1_6
# Protocol: as §1, §2, §3, §4
# [3] = test system: REC1_20 (TTAC 210) mRNA, phosphofructo-1-kinase C isozyme; experiment: TOGA analysis, REC1_20
# Protocol: as §1, §2, §3, §4
# [4] = test system: REC1_3 (MspI ACGG 162) mRNA; experiment: TOGA analysis, REC1_3
# Protocol: as §1, §2, §3, §4
# [5] = test system: REC1_18 (MspI TGGT 241) mRNA; experiment: TOGA analysis, REC1_18
# Protocol: as §1, §2, §3, §4
# [6] = test system: REC1_12 (GCCC 232) mRNA, alpha smooth muscle actin; experiment: TOGA analysis, REC1_12
# Protocol: as §1, §2, §3, §4
# [7] = test system: REC1_21 (TTCC 165) mRNA, elastin gene; experiment: TOGA analysis, REC1_21
# Protocol: as §1, §2, §3, §4
# REC1_17 (TCGT 199) mRNA = experiment: TOGA analysis, REC1_17
# Protocol: as §1, §2, §3, §4
# REC1_5 (AGTG 184) mRNA = experiment: TOGA analysis, REC1_5
# Protocol: as §1, §2, §3, §4
# [8] = test system: REC1_36 (digital address TTAG 155) mRNA; experiment: TOGA analysis, REC1_36
# Protocol: as §1, §2, §3
# The isolated mRNA was analyzed using a method of simultaneous sequence-specific identification of mRNAs known as TOGA, described in U.S. Pat. No. 5,459,037 and U.S. Pat. No. 5,807,680, hereby incorporated herein by reference. In a preferred embodiment, the TOGA method further comprised an additional PCR step performed using a mixture of four 5′ PCR primers and cDNA templates prepared from a population of antisense cRNAs. A final PCR step that used a mixture of 256 5′ PCR primers produced PCR products that were cDNA fragments that corresponded to the 3′-region of the starting mRNA population. The produced PCR products were then identified by: (a) the initial 5′ sequence comprising the sequence remainder of the recognition site of the restriction endonuclease used to cut and isolate the 3′ region plus the sequence of the preferably four parsing bases immediately 3′ to the remainder of the recognition site, preferably the sequence of the entire fragment; and (b) the length of the fragment. These two parameters, sequence and fragment length, were used to compare the obtained PCR products to a database of known polynucleotide sequences. Since the length of the obtained PCR products includes known vector sequences at the 5′ and 3′ ends of the insert, the sequence of the insert provided in the sequence listing is shorter than the fragment length that forms part of the digital address.
# The method yields Digital Sequence Tags (DSTs), that is, polynucleotides that are expressed sequence tags of the 3′ end of mRNAs. […]
# REC1_16 (TCGG 195) mRNA = experiment: TOGA analysis, REC1_16
# Protocol: as §1, §2, §3, §4
# [9] = TOGA, hypercholesterolemic plus lercanidipine racemate, eight weeks, H2 (normocholesterolemic)=1.0
structure (smiles),measurement,setting,value
"COC(=O)C1=C(C)NC(C)=C(C(=O)OC(C)(C)CN(C)CCC(c2ccccc2)c2ccccc2)C1c1cccc([N+](=O)[O-])c1 (racemic) [lercanidipine, lercanidipine hydrochloride]","level of gene expression (TOGA), 8 Week hypercholesterol + Lercanidipine","[1]; REC1_2, AATC 108, rabbit aorta, 8 weeks cholesterol + lercanidipine",1143
same,"level of gene expression (TOGA), 14 Day hypercholesterol + Lercanidipine","[1]; REC1_2, AATC 108, rabbit aorta, 14 days cholesterol + lercanidipine",545
same,"level of gene expression (TOGA), Normal + Lercanidipine","[1]; REC1_2, AATC 108, rabbit aorta, no cholesterol, lercanidipine",301
same,"Relative Abundance Rec1_2, TOGA, F",[1]; [9],6.5
same,"level of gene expression (TOGA), 8 Week hypercholesterol + Lercanidipine","[2]; REC1_6, ATCC 176, rabbit aorta, 8 weeks cholesterol + lercanidipine",1302
same,"level of gene expression (TOGA), 14 Day hypercholesterol + Lercanidipine","[2]; REC1_6, ATCC 176, rabbit aorta, 14 days cholesterol + lercanidipine",399
same,"level of gene expression (TOGA), Normal + Lercanidipine","[2]; REC1_6, ATCC 176, rabbit aorta, no cholesterol, lercanidipine",120
same,"Relative Abundance Rec1_6, TOGA, F",[2]; [9],8.8
same,"level of gene expression, 8 Week hypercholesterol + Lercanidipine","[3]; REC1_20 TTAC 210, rabbit aorta, cholesterol 8 weeks",260
same,"level of gene expression, 14 Day hypercholesterol + Lercanidipine","[3]; REC1_20 TTAC 210, rabbit aorta, cholesterol 14 days",348
same,"level of gene expression, Normal + Lercanidipine","[3]; REC1_20 TTAC 210, rabbit aorta, no cholesterol",607
same,"Relative Abundance Rec1_20, TOGA, F",[3]; [9],0.3
same,"level of gene expression (TOGA), 8 Week hypercholesterol + Lercanidipine","[4]; REC1_3, ACGG 162, rabbit aorta, 8 weeks cholesterol + lercanidipine",65
same,"level of gene expression (TOGA), 14 Day hypercholesterol + Lercanidipine","[4]; REC1_3, ACGG 162, rabbit aorta, 14 days cholesterol + lercanidipine",68
same,"level of gene expression (TOGA), Normal + Lercanidipine","[4]; REC1_3, ACGG 162, rabbit aorta, no cholesterol, lercanidipine",54
same,"Relative Abundance Rec1_3, TOGA, F",[4]; [9],0.8
same,"level of gene expression, 8 Week hypercholesterol + Lercanidipine","[5]; REC1_18 TGGT 241, rabbit aorta, cholesterol 8 weeks",935
same,"level of gene expression, 14 Day hypercholesterol + Lercanidipine","[5]; REC1_18 TGGT 241, rabbit aorta, cholesterol 14 days",112
same,"level of gene expression, Normal + Lercanidipine","[5]; REC1_18 TGGT 241, rabbit aorta, no cholesterol",316
same,"Relative Abundance Rec1_18, TOGA, F",[5]; [9],5.0
same,"level of gene expression, 8 Week hypercholesterol + Lercanidipine","[6]; REC1_12 GCCC 232, rabbit aorta, 8 weeks cholesterol",622
same,"level of gene expression, 14 Day hypercholesterol + Lercanidipine","[6]; REC1_12 GCCC 232, rabbit aorta, 14 days cholesterol",5657
same,"level of gene expression, Normal + Lercanidipine","[6]; REC1_12 GCCC 232, rabbit aorta, no cholesterol",4929
same,"Relative Abundance Rec1_12, TOGA, F",[6]; [9],0.1
same,"level of gene expression, 8 Week hypercholesterol + Lercanidipine","[7]; REC1_21 TTCC 165, rabbit aorta, cholesterol 8 weeks",486
same,"level of gene expression, 14 Day hypercholesterol + Lercanidipine","[7]; REC1_21 TTCC 165, rabbit aorta, cholesterol 14 days",1507
same,"level of gene expression, Normal + Lercanidipine","[7]; REC1_21 TTCC 165, rabbit aorta, no cholesterol",2064
same,"Relative Abundance Rec1_21, TOGA, F",[7]; [9],0.2
same,"level of gene expression (TOGA), 8 Week hypercholesterol + Lercanidipine","REC1_17 (TCGT 199) mRNA; REC1_17 TCGT 199, rabbit aorta, 8 weeks cholesterol, lercanidipine",262
same,"level of gene expression (TOGA), 14 Day hypercholesterol + Lercanidipine","REC1_17 (TCGT 199) mRNA; REC1_17 TCGT 199, rabbit aorta, 14 days cholesterol, lercanidipine",713
same,"level of gene expression (TOGA), Normal + Lercanidipine","REC1_17 (TCGT 199) mRNA; REC1_17 TCGT 199, rabbit aorta, no cholesterol, lercanidipine",1434
same,"Relative Abundance Rec1_17, TOGA, F",REC1_17 (TCGT 199) mRNA; [9],0.15
same,"level of gene expression (TOGA), 8 Week hypercholesterol + Lercanidipine","REC1_5 (AGTG 184) mRNA; REC1_5, AGTG 184, rabbit aorta, 8 weeks cholesterol + lercanidipine",188
same,"level of gene expression (TOGA), 14 Day hypercholesterol + Lercanidipine","REC1_5 (AGTG 184) mRNA; REC1_5, AGTG 184, rabbit aorta, 14 days cholesterol + lercanidipine",699
same,"level of gene expression (TOGA), Normal + Lercanidipine","REC1_5 (AGTG 184) mRNA; REC1_5, AGTG 184, rabbit aorta, no cholesterol, lercanidipine",1034
same,"Relative Abundance Rec1_5, TOGA, F",REC1_5 (AGTG 184) mRNA; [9],0.2
same,"level of gene expression, 8 Week hypercholesterol + Lercanidipine","[8]; REC1_36 TTAG 155, rabbit aorta, cholesterol 8 weeks",400
same,"level of gene expression, 14 Day hypercholesterol + Lercanidipine","[8]; REC1_36 TTAG 155, rabbit aorta, cholesterol 14 days",683
same,"level of gene expression, Normal + Lercanidipine","[8]; REC1_36 TTAG 155, rabbit aorta, no cholesterol",186
same,"Relative Abundance Rec1_36, TOGA, F",[8]; [9],0.5
same,level of gene expression of REC1_36 (TOGA),"[8]; aorta at day 14 of cholesterol administration, 3 mg/kg/week for 4 weeks",683
same,level of gene expression of REC1_36 (TOGA),"[8]; aorta at week 8 of cholesterol administration, 3 mg/kg/week for 10 weeks",400
same,"level of gene expression (TOGA), 8 Week hypercholesterol + Lercanidipine","REC1_16 (TCGG 195) mRNA; REC1_16 TCGG 195, rabbit aorta, 8 weeks cholesterol, lercanidipine",530
same,"level of gene expression (TOGA), 14 Day hypercholesterol + Lercanidipine","REC1_16 (TCGG 195) mRNA; REC1_16 TCGG 195, rabbit aorta, 14 days cholesterol, lercanidipine",1052
same,"level of gene expression (TOGA), Normal + Lercanidipine","REC1_16 (TCGG 195) mRNA; REC1_16 TCGG 195, rabbit aorta, no cholesterol, lercanidipine",2028
same,"Relative Abundance Rec1_16, TOGA, F",REC1_16 (TCGG 195) mRNA; [9],0.2
